# Values quoted from earlier work in US20010053349A1, “Artificial nail sanitizing solution” (priority 2000, published 2001).
# System: nail fungus
# Details: oral compounds; average; treatment of documented nail fungus
structure (smiles),measurement,value
CN(C/C=C/C#CC(C)(C)C)Cc1cccc2ccccc12 [terbinafine],Clinical and mycological cure rates,70%
